Literature values as cited in patent US5196437A, “Method for treating hepatic diseases and regenerating liver tissue using FK 506 and related compounds” (Fujisawa Pharmaceutical Company, Ltd., priority 1990, dated 1993).

What was measured:
[1] = system: liver; conditions: literature (Starzl et al); cited from earlier work
[2] = system: liver tissue; conditions: literature; cited from earlier work

Molecule: insulin
- hepatotrophic properties [1]: exhibit hepatotrophic effects similar to those of the present compounds

Molecule: glucagon
- hepatotrophic properties [1]: does not have the hepatotrophic properties
- metabolic effect on the liver [1]: powerful metabolic effect on the liver

Molecule: Cn1cnc([N+](=O)[O-])c1Sc1ncnc2nc[nH]c12 [Azathioprine]
- regeneration of liver tissue after partial hepatectomy [2]: depress the regeneration of liver tissue
